According to PMC10385824, “Antiproliferative and Tubulin-Destabilising Effects of 3-(Prop-1-en-2-yl)azetidin-2-Ones and Related Compounds in MCF-7 and MDA-MB-231 Breast Cancer Cells” (Pharmaceuticals, 2023):
Like-named read-outs stand apart in the source and are kept apart here.

Legend:
[1] = system: purified bovine brain tubulin; assay: Tubulin polymerization assay (light scattering, BK006 kit); format: biochemical; settings: compound at 10 μM; for Vmax: 37 °C, 340 nm; for Fold Reduction in Vmax: relative to vehicle
Method: Tubulin polymerization was monitored using the BK006 kit obtained from Cytoskeleton Inc. (Denver, CO, USA). The values reported represent the average values determined from two independent assays. Purified bovine brain tubulin (>99%, 3 mg/mL) in buffer containing PIPES (80 mM, pH 6.9), EGTA (0.5 mM), MgCl2 (2 mM), GTP (1 mM) and glycerol (10%) was incubated at 37 °C in vehicle (1% DMSO or EtOH (v/v) in dH2O) or with compounds 9h, 9q, 9s, 10h, 10p, 10r, 11h, 11p, 11r, 17f (all at 10 µM concentration); CA-4 (10 μM) was used as control. In this assay, light scattering is related to the concentration of polymerised microtubules produced. Tubulin assembly was monitored turbidimetrically at 340 nm at 37 °C in a Spectramax 340 PC spectrophotometer (Molecular Devices, Sunnyvale, CA, USA).

[2] = HPLC stability study in phosphate buffers; format: physicochemical; settings: for compound remaining: all pH values (4, 7.4, 9), after 11 days; for stability in words: over the pH range studied; for remaining at 264 h, 14.6 µg/mL: study over 264 h
[3] = HPLC stability study in plasma; format: in vitro ADME, human; settings: human, buffered plasma (plasma:buffer 1:9); Plasma; study over 264 h
Method: Analytical high-performance liquid chromatography (HPLC) stability studies were performed as follows using Symmetry® column (C18, 5 µm, 4.6 × 150 mm), Waters 2487 Dual Wavelength Absorbance detector, Waters 1525 binary HPLC pump and Waters 717 plus Autosampler (Waters Corporation, Milford, MA, USA) with detection at 254 nm as previously described. Samples were analysed using mobile phase acetonitrile (80%): water (20%), flow rate (1 mL/min) over 10 min. […] First, 30 µL of compound stock solution was diluted with appropriate buffer (1 mL); sample was shaken and injected immediately. Samples were withdrawn and analysed at the following time points: t = 0 min, 5 min, 30 min, 60 min, 90 min, 120 min, 24 h and 48 h. (ii) Thermal stability: Compound stock solution (1 mL) was placed in a glass vial on a heating block for 4 h at 60 °C. The sample was then cooled, diluted (acetonitrile) and analysed. (ii) Oxidising conditions: H2O2 (3%, 0.2 mL) was added to compound stock solution (0.8 mL). The vial was vortexed and retained at 20 °C, and the sample was analysed at 60, 120 180 and 240 min. (iv) Acidic conditions: HCl (0.1 M, 0.2 mL) was added to stock solutions (0.8 mL). The vial was mixed by vortex and retained at 20 °C. A sample was neutralised with NaOH (0.1 M, 0.2 mL) at 60, 120, 180 and 240 min, followed by HPLC analysis. (v) Alkaline conditions: NaOH (0.1 M, 0.2 mL) was added to stock solution (0.8 mL) of the compound in a vial. The vial was mixed by vortex and retained at 20 °C. A sample was neutralised with HCl (0.1 M, 0.2 mL) at 60, 120, 180 and 240 min followed by HPLC analysis. (vi) Photostability study: Compounds (stock solution, 1 mL) were placed in a vial, exposed to UV light for 4 h and then analysed by HPLC as above. Stability studies in plasma: Approval for this study was obtained from the School of Pharmacy and Pharmaceutical Sciences Trinity College Dublin Research Ethics Committee (2020–06-01-MS). Following informed consent, blood was withdrawn from healthy volunteers, and plasma was obtained by centrifugation and kept at −20 °C until further use. […] A sample (250 µL) was then added to the Eppendorf tube containing ZnSO4.7H2O solution (500 µL) (2% w/v ZnSO4 solution in acetonitrile:water, 1:1). The samples were centrifuged (10,000 rpm, 3 min), filtered (0.2 micron filter) and analysed by HPLC as above. Further samples were taken at one-hour intervals.

MDA-MB-231/ATCC = assay: NCI-60 SRB screen, breast cancer; format: cell-based, human; settings: Homo sapiens; MDA-MB-231; obtained from NCI; five concentrations 0.01–100 μM; 48 h; read-out: Antiproliferative Activity IC50
[4] = system: MCF-7 human breast cancer cells; assay: cells
[5] = system: NCI 60 human cancer cell line panel; assay: NCI 60 cell line screen (SRB), panel values; settings: for CC50: read-out: Mean LC50; for IC (TGI (total growth inhibition)): read-out: Mean TGI
[6] = HPLC stability under degradation conditions (acid, alkali, heat, light, oxidation); settings: for remaining at 4 h / remaining at 312 h, 0.5 mg/mL / remaining at 5 h, 0.5 mg/mL: % Remaining; for remaining at 6 h: 30% H2O2 added to stock solution, Hydrogen peroxide (30 % H2O2, 0.2 mL), 20 °C; for remaining at 312 h, 0.5 mg/mL: solution in acetonitrile:water 80:20, daylight, Daylight (acetonitrile (80%):water (20%) 13 days); for remaining at 5 h, 0.5 mg/mL: stock solution in acetonitrile:water 80:20, heated, 80 °C (heating block, 5 h)
[7] = system: MDA-MB-231 human breast cancer cells; assay: Alamar Blue cell viability (antiproliferative) assay; format: cell-based
[8] = system: MCF-7 human breast cancer cells; settings: for antiproliferative activity in words: MCF-7
[9] = system: microtubule network in MCF-7 cells; assay: Immunofluorescence confocal microscopy; format: cell-based, human; settings: 16 h
Method: CA-4 and β-lactam 9q depolymerise the microtubule network in MCF-7 cells. […] After 16 h, the cells were fixed in 4% paraformaldehyde and stained with mouse monoclonal anti-α-tubulin−FITC antibody (clone DM1A) (green), Alexa Fluor 488 dye, and counterstained with DAPI (blue). The confocal images were obtained by Leica SP8 confocal microscopy with Leica application suite X software. Representative confocal micrograph images of three separate experiments are shown above [scale bar: […]].
The effects of β-lactam 9q on MCF-7 cytoskeleton were determined using confocal microscopy as previously described. MCF-7 cells were seeded at 1 × 10^5 cells/mL in glass slides with eight chambers (BD Biosciences, San Jose, CA, USA). […] Following treatment, cells were gently washed in PBS, fixed for 20 min with 4% paraformaldehyde in PBS and permeabilised in 0.5% Triton X-100. The cells were then washed with PBS-T (PBS containing 0.1% Tween), blocked in 5% bovine serum albumin diluted in PBS-T and incubated with mouse monoclonal anti-α-tubulin-FITC antibody (clone DM1A) (Sigma, Milwaulkee, WI, USA) (1:100) for 2 h at 20 °C. The cells were washed again with PBS-T and incubated with Alexa Fluor 488 dye (1:450) for 1 h at 20 °C. Following washes in PBST, the cells were mounted in Ultra Cruz Mounting Media (Santa Cruz Biotechnology, Santa Cruz, CA, USA), which contained 4,6-diamino-2-phenolindol dihydrochloride (DAPI). The immunofluorescence cell images were captured by Leica SP8 confocal microscopy and analysed with Leica application suite X software. Microscopy experiments were performed on three independent occasions, and the images for these experiments were obtained on the same day using identical conditions.

[10] = MCF7, read-out: Antiproliferative Activity IC50, MCF-7, eight concentrations 0.001–50 μM, mean ± SEM, Table 3
[11] = Homo sapiens, 60 cell, read-out: Mean GI50, mean over all NCI 60 cell lines
[12] = read-out: Mean GI50, mean over all NCI 60 cell lines
[13] = 1M HCl added to stock solution, 1M HCl (0.1 mL, 20 °C, 4h)
[14] = 1M HCl added to stock solution, 1M HCl (0.2 mL, 50 °C, 4h)
[15] = 1M NaOH added to stock solution, 1M NaOH (0.1 mL, 20 °C, 4h)
[16] = 72 h, eight concentrations 0.001-50 μM, mean ± SEM, read-out: Antiproliferative Activity IC50
[17] = MCF7, 72 h, read-out: Antiproliferative Activity IC50, MCF-7, 72 h, eight concentrations 1–50 μM, mean ± SEM, Table 2
[18] = 1M NaOH added to stock solution, 1M NaOH (0.2 mL, 50 °C, 4h)

Row | remaining at 264 h, 14.6 µg/mL ([2]; phosphate buffer, pH 4.0) [%] | remaining at 264 h, 14.6 µg/mL ([2]; phosphate buffer, pH 7.4) [%] | remaining at 264 h, 14.6 µg/mL ([2]; phosphate buffer, pH 9.0) [%] | remaining at 264 h, 41.3 µg/mL [3] [%] | IC50 [4, 10] [nM] | remaining at 4 h [6, 13] [%] | remaining at 4 h [6, 14] [%] | remaining at 6 h [6] [%] | remaining at 312 h, 0.5 mg/mL [6] [%] | remaining at 5 h, 0.5 mg/mL [6] [%] | melting point [°C] | IC50 [4, 17] [nM] | SMILES | antiproliferative activity in words [8] | also measured
1 | 28 | 41 | 24 | 100 | 35 ± 5 | 97.5 | 99.6 | 100 | 100 | 100 |  |  | C=CCC1C(=O)N(c2cc(OC)c(OC)c(OC)c2)C1c1ccc(OC)cc1 (centres unmarked) [10h, 3-Allyl-4-(4-methoxyphenyl)-1-(3,4,5-trimethoxyphenyl)azetidin-2-one] |  | Vmax [1]: 0.0056 mOD/min; Fold Reduction in Vmax [1]: 2.5; compound remaining [2]: 24–41%; stability in words [2]: poor stability; IC50 (MDA-MB-231/ATCC): 120 nM; GI50 [5, 11]: < 91.2 nM; CC50 ([5]; Homo sapiens, 60 cell): 81300 nM; IC (TGI (total growth inhibition)) ([5]; Homo sapiens, 60 cell): 17400 nM; GI50 [5, 12]: 75.9 nM; remaining at 4 h [6, 15]: 96%
2 |  |  |  |  |  |  |  |  |  |  | 123 to 124 | 78100 ± 5470 | C=C(C)C1C(=O)N(c2cc(OC)c(OC)c(OC)c2)C1c1ccc2ccccc2c1 (centres unmarked) [9n, 4-Naphthalen-2-yl-1-(3,4,5-trimethoxyphenyl)-3-(prop-1-en-2-yl)azetidin-2-one] |  | IC50 [7, 16]: 529 ± 80 nM; fold more potent than the 1-naphthyl compound 9m ([8]; MCF-7 IC50 ratio): 58 fold; IC50 ([4]; MCF7, MCF-7): 139 nM
3 | 26 | 25 | 22 | 90 | 619 ± 70 | 99.2 | 98.7 | 92 | 100 | 100 | 108 to 110 |  | C=CCC1C(=O)N(c2cc(OC)c(OC)c(OC)c2)C1c1ccc(OC)c([N+](=O)[O-])c1 (centres unmarked) [10q, 3-Allyl-4-(4-methoxy-3-nitrophenyl)-1-(3,4,5-trimethoxyphenyl)azetidin-2-one] |  | compound remaining [2]: 22–26%; stability in words [2]: poor stability; remaining at 4 h [6, 15]: 97.8%; remaining at 4 h [6, 18]: 97.8%
4 |  |  |  |  |  |  |  |  |  |  |  |  | CC(=O)O[C@H]1C(=O)[C@@]2(C)[C@H]([C@H](OC(=O)c3ccccc3)[C@]3(O)C[C@H](OC(=O)[C@H](O)[C@@H](NC(=O)c4ccccc4)c4ccccc4)C(C)=C1C3(C)C)[C@]1(OC(C)=O)CO[C@@H]1C[C@@H]2O [paclitaxel] |  | effect on microtubule network [9]: induced the formation of microtubule bundles and pseudo-asters
5 |  |  |  |  |  |  |  |  |  |  | 99 to 100 | 272000 ± 26400 | C=C(C)C1C(=O)N(c2cc(OC)c(OC)c(OC)c2)C1c1ccc(SC)cc1 (centres unmarked) [9o, 4-(4-(Methylthio)phenyl)-3-(prop-1-en-2-yl)-1-(3,4,5-trimethoxyphenyl)azetidin-2-one] | sub-micromolar | 
6 |  |  |  |  |  |  |  |  |  |  | 128 to 130 | 1160 ± 120 | C=C(C)C1C(=O)N(c2ccc(OC)cc2)C1c1cc(OC)c(OC)c(OC)c1 (centres unmarked) [9v, 1-(4-Methoxyphenyl)-3-(prop-1-en-2-yl)-4-(3,4,5-trimethoxyphenyl)azetidin-2-one] | minimal | 
7 |  |  |  |  |  |  |  |  |  |  | 102 to 104 |  | C=C(C)C1C(=O)N(c2cc(OC)c(OC)c(OC)c2)C1c1ccc(C)cc1 (centres unmarked) [9g, 4-p-Tolyl-1-(3,4,5-trimethoxyphenyl)-3-(prop-1-en-2-yl)azetidine-2-one] | sub-micromolar | IC50 [7, 16]: 246 ± 17 nM
8 |  |  |  |  |  |  |  |  |  |  | 113 to 115 | 131 ± 40 | C=C(C)C1C(=O)N(c2ccc(SC)cc2)C1c1cc(OC)c(OC)c(OC)c1 (centres unmarked) [9t, 1-(4-(Methylthio)phenyl)-3-(prop-1-en-2-yl)-4-(3,4,5-trimethoxyphenyl)azetidin-2-one] | minimal | 
9 |  |  |  |  |  |  |  |  |  |  | 137 to 138 | 630 ± 70 | C=C(C)C1C(=O)N(c2cc(OC)c(OC)c(OC)c2)C1c1ccc(Cl)cc1 (centres unmarked) [9b, 4-(4-Chlorophenyl)-1-(3,4,5-trimethoxyphenyl)-3-(prop-1-en-2-yl)azetidine-2-one] | sub-micromolar | 

Row | SMILES | remaining at 264 h, 14.6 µg/mL ([2]; phosphate buffer, pH 4.0) [%] | remaining at 264 h, 14.6 µg/mL ([2]; phosphate buffer, pH 7.4) [%] | remaining at 264 h, 14.6 µg/mL ([2]; phosphate buffer, pH 9.0) [%] | remaining at 264 h, 41.3 µg/mL [3] [%] | IC50 [4, 10] [nM] | remaining at 4 h [6, 13] [%] | remaining at 4 h [6, 14] [%] | remaining at 6 h [6] [%] | remaining at 312 h, 0.5 mg/mL [6] [%] | remaining at 5 h, 0.5 mg/mL [6] [%] | melting point [°C] | IC50 [4, 17] [nM] | antiproliferative activity in words [8] | also measured
10 | C=CCC1C(=O)N(c2cc(OC)c(OC)c(OC)c2)C1c1ccc(OC)c(N)c1 (centres unmarked) [10r, 3-Allyl-4-(3-amino-4-methoxyphenyl)-1-(3,4,5-trimethoxyphenyl)azetidin-2-one] | 96 | 99 | 83 | 97 | 35 ± 4 | 91.8 | 92.2 | 8 | 93 | 100 |  |  |  | IC50 ([7]; read-out: IC50): 35 nM; Vmax [1]: 0.0029 mOD/min; Fold Reduction in Vmax [1]: 3.4; half-life at 14.6 µg/mL ([2]; phosphate buffer, pH range studied, medium not specified, read-out: half-life (t½) (converted)): > 24 h; IC50 (MDA-MB-231/ATCC): 35.2 nM; IC50 ([4]; MCF7, MCF-7): 10 to 33 nM; GI50 [5, 11]: < 91.2 nM; CC50 ([5]; Homo sapiens, 60 cell): 79400 nM; IC (TGI (total growth inhibition)) ([5]; Homo sapiens, 60 cell): 53700 nM; GI50 [5, 12]: 85.1 nM; remaining at 4 h [6, 18]: 83.1%
